Experimental data published in the NIST ThermoML archive (doi:10.1016/j.jct.2015.08.008).
Numbers after ± are expanded uncertainties.

Assay: molar enthalpy of vaporization or sublimation
Conditions: 298.15 K; Crystal; Static calorimetry

Structure (SMILES)	molar enthalpy [kcal/mol]
CC(=O)c1cccc(C#N)c1 [3-acetylbenzonitrile]	22.6 ± 0.359
N#CCC(=O)c1ccccc1 [3-oxo-3-phenylpropanenitrile]	23.5 ± 0.502
